Reference: patent publication US5434182A (priority 1993, dated 1995)
Where “and” joins values, the source holds several entries; their conditions need not be identical. Equal entries are not always repeated. Entries after “also recorded” stand apart in the source; their conditions may differ. Structures can show the parent of a compound that is named as a salt. Where two headings read alike, the source gives them in different places.

How the values were obtained:
[1] = test system: VSV; experiment: microbe, parasite or virus in culture; assay type: cell-based, vesicular stomatitis virus
[2] = test system: VSV; experiment: microbe, parasite or virus in culture; assay type: cell-based, vesicular stomatitis virus strain Indiana; conditions: for minimal effective concentration: read-out: lowest concentration which reduced the VSV titer by ≥4.0 log10 units; for antiviral effect in words: fatty acids of Table 2
[3] = test system: poliovirus; assay type: cell-based, Poliovirus type 1 strain Chat; conditions: 8 mg/ml, 37° C., 30 min; control 10^4.7 TCID50
[4] = test system: Visna virus; experiment: microbe, parasite or virus in culture; assay type: cell-based, Visna virus strain K796; conditions: Visna-maedi virus, 0.5 h, 37° C., 30 min, read-out: Reduction of virus titer, VV (visna virus)
[5] = test system: VSV; experiment: microbe, parasite or virus in culture; assay type: cell-based, vesicular stomatitis virus; conditions: for log reduction at 5000 µM / log reduction at 10000 µM: Vesicular stomatitis virus, read-out: Log10 Reduction in VSV Titer
[6] = test system: VSV; experiment: microbe, parasite or virus in culture; assay type: cell-based, vesicular stomatitis virus strain Indiana
[7] = test system: HSV-1; experiment: microbe, parasite or virus in culture; assay type: cell-based, herpes simplex virus type 1 strain MacIntyre; conditions: Human alphaherpesvirus 1, 0.5 h; 20 mg/ml, 37° C., 30 min; read-out: Reduction of virus titer, HSV-1
[8] = test system: sperm; experiment: Spermicidal test: motility and viability of sperm in semen; assay type: cell-based; conditions: for coating of sperm: B, D 100 mM in semen, 30 minutes
Procedure: The fatty acids and derivatives thereof disclosed here are useful as spermicides and in the treatment of sexually transmitted diseases. […] Four samples tested were comprised as follows:
Five test tubes were prepared, one for each of Samples A to D and a Control. An amount of 0.5 ml of active semen was added to each test tube. Each of Samples A and B and the Control was at 37° C., and Samples C and D were at room temperature. The percentages of motility and viability were measured from 15 seconds to 5 minutes in the case of each of Samples A to D and from 15 seconds to 2 hours for the Control.

[9] = Vesicular stomatitis virus, 0.5 h, read-out: Reduction of virus titer, VSV
[10] = Vesicular stomatitis virus, 0.5 h
[11] = 100 mM in semen, 5 min., Sample B 37° C., Sample D room temperature
[12] = 150 mM in semen, 3 min., Sample A 37° C., Sample C room temperature
[13] = 150 mM in semen, 5 min., Sample A 37° C., Sample C room temperature

CCCCCCCC/C=C\CCCCCCCCOC[C@@H](O)CO [1-O-Oleyl-sn-glycerol, 1-O-oleyl-sn-glycerol]
log reduction at 5000 µM ([1]; Vesicular stomatitis virus, 0.5 h, read-out: Reduction in VSV Titer, 5 mM, no sodium taurocholate, human plasma, 37° 30 min): 0
log reduction at 10000 µM ([1]; Vesicular stomatitis virus, 0.5 h, read-out: Reduction in VSV Titer, 10 mM, no sodium taurocholate, human plasma, 37° 30 min): 0
log reduction at 15000 µM ([1]; Vesicular stomatitis virus, 0.5 h, read-out: Reduction in VSV Titer, 15 mM, no sodium taurocholate, human plasma, 37° 30 min): 0
antiviral activity of MG ethers relative to esters, in words ([1]; human plasma): same lack of antiviral activity as the ester

CCCCC/C=C\C/C=C\C/C=C\C/C=C\CCCC(=O)O [Arachidonic (20:4), arachidonic acid]
log reduction at 500 µg/mL [2, 9]: ≥ 4
minimal effective concentration [2, 10]: 500 µg/mL and 1600 µM
reduction of poliovirus titer [3]: did not cause a significant reduction of virus titer

CCCC(=O)O [Butyric (4:0), Butyric]
log reduction at 10000 µg/mL [2, 9]: 0
antiviral effect in words [2]: no or a very small antiviral effect

CCCCCC(=O)O [Caproic (6:0), Caproic]
log reduction at 10000 µg/mL [2, 9]: 0
antiviral effect in words [2]: no or a very small antiviral effect

CCCCCCCC(=O)O [Caprylic (8:0), Caprylic]
log reduction at 10000 µg/mL [2, 9]: 1.8
antiviral effect in words [2]: no or a very small antiviral effect
log reduction at 10000 µg/mL ([4]; 10 mg/ml): ≥ 3.2

CCCCCCCC/C=C/CCCCCCCC(=O)O [Elaidic (18:1 trans), Elaidic]
log reduction at 2000 µg/mL [2, 9]: ≥ 4
minimal effective concentration [2, 10]: 2000 µg/mL and 7000 µM

CCCCCCCCCCCC(=O)OC[C@@H](O)COP(=O)([O-])OCC[N+](C)(C)C [L-α-Lysophosphatidylcholine lauroyl]
Log10 Reduction in VSV Titer [5]: 1.7 Log10 and 2.0 Log10
log reduction at 5000 µM [5]: 1.2
log reduction at 10000 µM [5]: 2

CCCCCCCCCC(=O)OC[C@@H](O)COP(=O)([O-])OCC[N+](C)(C)C [L-α-lysophosphatidylcholine decanoyl]
Log10 Reduction in VSV Titer [5]: 1.7 Log10
log reduction at 5000 µM [5]: 1.7
log reduction at 10000 µM [5]: 1

CCCCCCCC/C=C\CCCCCCCC(=O)OCC(O)CO (stereo not drawn) [Monoolein (18:1), Monoolein]
concentration with highest antiviral activity of the concentrations tested (0.5 to 4 mg/ml) ([6]; VSV, 37° C., 30 min): 1.0 mg/ml and 2.8 mM
log reduction at 1000 µg/mL [6, 9]: 2.3

CCCCCCCCCCCCCCCC(=O)O [Palmitic (16:0), Palmitic]
log reduction at 20000 µg/mL [7]: 1
log reduction at 20000 µg/mL [2, 9]: 1
antiviral effect in words [2]: no or a very small antiviral effect
log reduction at 20000 µg/mL ([4]; 20 mg/ml): 0.7

CCCCCCCCCCCCCCCCCC(=O)O [Stearic (18:0), Stearic]
log reduction at 20000 µg/mL [2, 9]: 0
antiviral effect in words [2]: no or a very small antiviral effect

CCCCC/C=C\C/C=C\CCCCCCCC(=O)O [sodium salt of linoleic acid]
antiviral effect in words [2]: antiviral effects similar to those of the free acids

CCCCCCCC/C=C\CCCCCCCC(=O)O [sodium salt of oleic acid]
antiviral effect in words [2]: antiviral effects similar to those of the free acids

L-α-lysophosphatidylcholine caproyl
Log10 Reduction in VSV Titer ([5]; 5 mM, no sodium taurocholate): 0 Log10
Log10 Reduction in VSV Titer ([5]; 5 mM, with 10 mM sodium taurocholate): 0 Log10
Log10 Reduction in VSV Titer ([5]; 10 mM, no sodium taurocholate): 0 Log10
Log10 Reduction in VSV Titer ([5]; 10 mM, with 10 mM sodium taurocholate): 0 Log10
Log10 Reduction in VSV Titer ([5]; 15 mM, no sodium taurocholate): 0 Log10
Log10 Reduction in VSV Titer ([5]; 15 mM, with 10 mM sodium taurocholate): 1.0 Log10

N-dodecylsucrose
% mot. ([8]; 100 mM in semen, 15 sec., Sample B 37° C., Sample D room temperature): 17%
% mot. ([8]; 100 mM in semen, 30 sec., Sample B 37° C., Sample D room temperature): 9%
% mot. ([8]; 100 mM in semen, 1 min., Sample B 37° C., Sample D room temperature): 2%
% mot. ([8]; 100 mM in semen, 2 min., Sample B 37° C., Sample D room temperature): 0%
% mot. ([8]; 100 mM in semen, 3 min., Sample B 37° C., Sample D room temperature): 0%
% mot. [8, 11]: 0%
% via. [8, 11]: 0%
% mot. ([8]; 150 mM in semen, 15 sec., Sample A 37° C., Sample C room temperature): 0%
% mot. ([8]; 150 mM in semen, 30 sec., Sample A 37° C., Sample C room temperature): 0%
% mot. ([8]; 150 mM in semen, 1 min., Sample A 37° C., Sample C room temperature): 0%
% mot. ([8]; 150 mM in semen, 2 min., Sample A 37° C., Sample C room temperature): 0%
% mot. [8, 12]: 0%
% via. [8, 12]: 0%
% mot. [8, 13]: 0%
% via. [8, 13]: 0%
time within which 0% viability was effected ([8]; A, C 150 mM, B 100 mM in semen): ≤ 3 min
time within which sperm cells were rendered immobile ([8]; A, C 150 mM, B 100 mM in semen): ≤ 15 s
coating of sperm ([8]; A, C 150 mM, listed as Solution C): coated the sperm effectively; also recorded: most effective in this regard
coating of sperm ([8]; A, C 150 mM, listed as Solution D): did not have any coating effect at all
